From US20150233903A1, “SOLID PHASE GLYCAN AND GLYCOPEPTIDE ANALYSIS AND MICROFLUIDIC CHIP FOR GLYCOMIC EXTRACTION, ANALYSIS AND METHODS FOR USING SAME” (THE JOHNS HOPKINS UNIVERSITY, priority 2012, published 2015)

System: pancreatic cancer cell line SW1990
Assay: Relative quantitation of sialylated N-glycans from SW1990 cells with and without 1,3,4-O-Bu3ManNAc treatment (light/heavy p-toluidine labeling, MALDI-MS)
Assay type: cell-based
Conditions: for H/L: SW1990 cells treated (heavy) vs untreated (light), glycan Core+Na
Procedure: Proteins were immobilized to amino link beads via reductive amination. Briefly, AminoLink resin (200 μL) was loaded onto snap-cap spin-column, centrifuged at 2000 g for 1 minute. Resin was washed with 450 μL of pH 10 buffer (Sodium citrate 100 mM and sodium carbonate 50 mM) followed by centrifugation. The washing step was repeated twice. Proteins dissolved in pH 10 buffer were loaded onto prepared AminoLink resin in snap-cap spin-column in 1 mg/200 μL beads ratio. The volume was adjusted to 450 μL using pH 10 buffer. Sample-resin mixture was incubated at room temperature overnight. The mixture was centrifuged at 2000 g to remove any unbound protein. Resin was rinsed by 1×PBS buffer (Sigma-Aldrich; pH 7.4; 450 μL) three times. PBS buffer in the presence of 50 mM sodium cyanoborohydride (450 μL) was added to resin (spin-column capped during each incubation step). After a four hour incubation, supernatant was removed via centrifugation (2000 g) and 450 μL of 1 M Tris-HCl (pH 7.6) in the presence of 50 mM sodium cyanoborohydride was added to block un-reacted aldehyde sites of resin. The blocking process was terminated after 1 hour, followed by washing of resin with PBS twice, 1M […] twice and water three times.
Proteins conjugated on solid support were mixed with 450 μL of 1M p-toluidine and 40 μL of EDC at pH 4.5 adjusted using HCl. After incubation for 4 hours, beads were washed twice with 500 μL of 1M NaCl and water followed by 50 mM ammonium bicarbonate, three times for each solution, and treated with 100 units of PNGase F in 0.3 mL of 50 mM ammonium bicarbonate overnight at 37° C. to release N-glycans from proteins. Nglycans released in the supernatant were subsequently collected. The N-glycans released from glycoproteins were further purified and concentrated over Carbograph columns (Extract-Clean SPE Carbo 150 mg; Grace Division Discovery Science; Deerfield, Ill.) and eluted in 0.1% TFA 50% acetonitrile/water following the manufacturer's instruction (Grace Davison Discovery Sciences, Milwaukee, Wis.). Glycans were then dried in Savant Speed-Vac (Thermo Scientific, Asheville, N.C.).
Glycans were resuspended in 20 μL of water. Sample 1.5 μL was mixed 1.5 μL of matrix on a 384-well goals MALDI plate (Hudson Surface Technology, Fort Lee, N.J.). DHB matrix solution was prepared by dissolving 100 mg of DHB in 1 mL of a 1:1 solution of water and ACN followed by addition of 40 μL of dimethylaniline. Glycans were analyzed by Shimadzu AXIMA Resonance Mass Spectrometer (Shimadzu, Columbia, Md.) in positive mode.
It has been well established that the extent of glycan sialylation depends on sialyltransferases, the biosynthetic enzymes responsible for adding a sialic acid to an underlying galactose or GalNAc residue. […] To fill this void, in the present invention we profiled N-glycans in SW1990 treated with 1,3,4-O-Bu3ManNAc as previously described. Protein extract from 1,3,4-O-Bu3ManNAc treated SW1990 cells and untreated control cells were conjugated to solid support and labeled with isotopic p-toluidine as described above. The mass spectrometric analysis of labeled glycans identified 87 N-glycans based on accurate mass (data not shown). Sialic acid compositional assignment was determined based on the differences of heavy and light labeled glycans. Twenty one heavy and light glycan peaks were identified with a mass shift of 7 or a multiple of 7, confirming that the presence of 21 sialylated glycans (FIGS. 13A and 13B). Qualitative analysis of N-glycans from cells with and without ManNAc treatment using isotopic labeling of sialylated N-glycans with 1:1 combined samples identified and quantified 14 sialylated glycans (Table 5). Seven other sialylated Nglycans could not be quantified due to low signal to noise ratio when the two samples were combined for MS analysis.

For `CCCC(=O)OC1O[C@H](CO)[C@@H](OC(=O)CCC)[C@H](OC(=O)CCC)[C@@H]1NC(C)=O` (stereo partly shown) [1,3,4-O—Bu3ManNAc, 1,3,4-O-Bu3ManNAc], the H/L (Fucose 0, HexNAc 2, Hexose 2, Sialic Acid 1, [M+Na] 2043.89) was 1.29, the H/L (Fucose 1, HexNAc 2, Hexose 2, Sialic Acid 1, [M+Na] 2189.95) was 1.09 and the H/L (Fucose 1, HexNAc 2, Hexose 2, Sialic Acid 2, [M+Na] 2570.21) was 1.02. The H/L (Fucose 1, HexNAc 3, Hexose 2, Sialic Acid 1, [M+Na] 2393.04) was 1.95, the H/L (Fucose 1, HexNAc 3, Hexose 2, Sialic Acid 2, [M+Na] 2773.31) was 1.70 and the H/L (Fucose 1, HexNAc 3, Hexose 3, Sialic Acid 1, [M+Na] 2555.10) was 1.31. For the same compound, the H/L (Fucose 1, HexNAc 3, Hexose 3, Sialic Acid 2, [M+Na] 2935.36) was 0.98, the H/L (Fucose 1, HexNAc 4, Hexose 3, Sialic Acid 1, [M+Na] 2758.19) was 1.66 and the H/L (Fucose 2, HexNAc 2, Hexose 2, Sialic Acid 1, [M+Na] 2336.01) was 1.10. The H/L (Fucose 2, HexNAc 3, Hexose 2, Sialic Acid 1, [M+Na] 2539.10) was 1.31, the H/L (Fucose 2, HexNAc 3, Hexose 3, Sialic Acid 1, [M+Na] 2701.15) was 1.03 and the H/L (Fucose 2, HexNAc 4, Hexose 3, Sialic Acid 1, [M+Na] 2904.25) was 2.04. For the same compound, the H/L (Fucose 3, HexNAc 3, Hexose 2, Sialic Acid 1, [M+Na] 2585.15) was 1.00, the H/L (Fucose 3, HexNAc 4, Hexose 3, Sialic Acid 1, [M+Na] 3050.31) was 1.39 and the “decrease in sialylated N-glycans when cells were treated” value (SW1990 cells, treated vs untreated) was “no significant decrease”. The “number of sialylated N-glycan compositions with a significant increase in abundance” value (SW1990 cells, treated vs untreated, 14 sialylated glycans quantified) was “six”.
